Experimental findings from PMC12666239 (Chembiochem, 2025) are described below.

Several values for one entry are separate records, joined by “and”; a condition that tells them apart may be missing. Identical values can stand only once.

The test concerns the target Nsp3b^F360N/D361S (Severe acute respiratory syndrome coronavirus 2, UniProt P0DTD1, D1179S/F1178N). Format: binding, SARS-CoV-2.

`N#C[C@@]1(c2ccc3c(N)ncnn23)O[C@H](COS(N)(=O)=O)[C@@H](O)[C@H]1O` [compound 3]: the TΔS result was “≈ 0.10 kcal mol^−1”; the ΔG is given as −7.73 kcal mol^–1; the ΔH is −7.83 ± 0.15 and −7.83 ± 0.15 kcal mol^–1; the “−TΔS” value was determined as 0.104 kcal mol^–1.
